# In patent publication US20250313960A1, “CHOLINE HYDROXIDE FOR SALT DI[…] RENEWABLE FEEDSTOCK PROCESS” (Ecolab USA Inc., priority 2024, published 2025):
# Key:
# [1] = all temperatures; compared with NH4Cl; FIG. 2, literature values or calculated from solubility data
# Experimental: The effectiveness of the salt to dissolve in the aqueous phase was determined by its critical relative humidity (CRH) at various temperatures. CRH was defined by the ratio of the partial pressure of water in the solution (Pw) to the partial pressure of pure water (P*w) shown below.
# The CRH of the salt at a specified temperature was calculated from thermodynamic parameters found in the equation:
# Where CRH was the critical relative humidity, T was the temperature, ΔHs was the heat of solution at infinite dilution, R is the gas constant, and A, B, and C are solubility parameters obtained from solubility as a function of temperature of the salt.
# Data not available in the literature was experimentally performed in triplicate by an enthalpy experiment and a solubility experiment.
# The enthalpy experiment was conducted by recording changes in temperature as different amounts of the salt dissolved in a set volume of water located in a calorimeter. The enthalpy of solution was calculated for each of the different amount of salt used. The enthalpy data was then fitted and extrapolated to determine enthalpy of solution at an infinite dilution.
# The CRH values at room temperature were found in literature or calculated from the solubility data following the below equations.
# [2] = in water; all tested temperatures; compared with NH4Cl; FIG. 1, literature and experimental data
# Experimental: The solubility experiment was conducted by adding different amounts of salt to a set amount of water in glass vials. The amount of water used was such that the salt was mostly insoluble at room temperature. The vials were then heated up until all salts were dissolved. Temperature was recorded as each vial cooled. The temperature at which crystallization began was noted.
smiles,measurement,setting,value
"C[N+](C)(C)CCO.[Cl-] [ChCl, choline chloride]",critical relative humidity (CRH),[1],lower
same,solubility as a function of temperature (mol salt/mol water),[2],more soluble than NH4Cl
